Assays:
[1] = Determination of pH stability: appearance of 0.8 g/l solution at different pH values on storage; type: physicochemical; conditions: 0.8 g/l in drinking water, dark, 25° C.
Protocol: (§1) The sensitivity of the test compounds (102)-(104) of the invention and of the commercial compound (103) to acidic pH values is evaluated in a bath and on the cotton fabric.
(§2) A solution containing 0.8 g/l of the test compound (as active ingredient) in drinking water (approximately 11° German hardness) is prepared and separate samples of the solution are adjusted to different pH values and stored in the dark at 25° C. The appearance of each sample is assessed immediately and also after 1, 2 and 4 hours storage.

[2] = Determination of fibre affinity: Ganz whiteness of bleached cotton after exhaust treatment at 95° C.; conditions: for Whiteness Value: Ganz whiteness, 0.2% whitener on fibre weight, exhaust method, liquor ratio 1:40, up to 95° C., measure of affinity to cotton
Protocol: Various bleached cotton swatches are treated by the exhaust method in an aqueous bath having the following composition: • 0.2% of test fluorescent whitener (100% active substance), based on the weight of the fibre, • 0.5 ml/l Ultravon EL™, • 20 ml/l 3% aqueous sodium hydroxide solutions, • 2 ml/l 10% aqueous sodium silicate solution and • 3 ml/l 35% aqueous hydrogen peroxide solution.
The fluorescent whiteners used were compounds (102)-(104) of the present invention and a commercial product having the formula [drawing 11]
The treatment is conducted at a liquor ratio of 1:40 for 30 minutes at from 25 to 95° C., then for a further 60 minutes at 95° C. and, finally, cooled to 30° C. The swatches are removed from the treatment bath, rinsed and dried at 60° C.
Due to the high application temperature of 95° C., the tested compounds must have high affinity to cotton to provide high whiteness levels. Consequently, the whiteness values are a suitable measure of affinity, i.e. high whiteness corresponds to high affinity.
Whiteness was measured according to the method of Ganz, which is described in detail in the Ciba-Geigy Review, 1973/1 and also in the article “Whiteness Measurement”, ISCC Conference on Fluorescence and the Colorimetry of Fluorescent Materials, Williamsburg, February 1972, published in the Journal of Color and Appearance, 1, No. 5 (1972).

[3] = Determination of pH stability: Ganz whiteness of bleached cotton padded with the stored solutions; conditions: liquor pick-up 65%
Protocol: as §1, §2
Following the 4 hour appearance assessment, separate samples of bleached cotton are padded with the respective solutions (liquor pick-up 65%). The fabric samples are dried at 70° C. for 20 minutes and the whiteness values determined according to the method of Ganz.

[4] = cotton padded with pH 3 solution after 4 hours storage
[5] = cotton padded with pH 4 solution after 4 hours storage
[6] = cotton padded with pH 5 solution after 4 hours storage
[7] = cotton padded with pH 6 solution after 4 hours storage
[8] = cotton padded with pH 7 solution after 4 hours storage

Row | SMILES | Appearance of solution ([1]; 1 hour, pH 4) | Appearance of solution ([1]; 1 hour, pH 5) | Appearance of solution ([1]; 1 hour, pH 6) | Appearance of solution ([1]; 1 hour, pH 7) | Appearance of solution ([1]; 2 hours, pH 4) | Appearance of solution ([1]; 2 hours, pH 5) | Appearance of solution ([1]; 2 hours, pH 6) | Appearance of solution ([1]; 2 hours, pH 7) | Appearance of solution ([1]; 4 hours, pH 4) | Appearance of solution ([1]; 4 hours, pH 5) | Appearance of solution ([1]; 4 hours, pH 6) | Appearance of solution ([1]; 4 hours, pH 7) | Appearance of solution ([1]; Immediate, pH 5) | Appearance of solution ([1]; Immediate, pH 6) | Appearance of solution ([1]; Immediate, pH 7) | Whiteness Value [2] | Whiteness [3, 4] | Whiteness [3, 5] | Whiteness [3, 6] | Whiteness [3, 7] | further results
1 | CC(O)CN(CC(C)O)c1nc(Nc2ccc(S(=O)(=O)CCO)cc2)nc(Nc2ccc(/C=C/c3ccc(Nc4nc(Nc5ccc(S(=O)(=O)CCO)cc5)nc(N(CC(C)O)CC(C)O)n4)cc3S(=O)(=O)[O-])c(S(=O)(=O)[O-])c2)n1.[Na+].[Na+] (stereo not drawn) [(102)] | clear | clear | clear | clear | clear | clear | clear | clear | clear | clear | clear | clear | clear | clear | clear | 234 | 171 | 192 | 194 | 193 | Appearance of solution ([1]; Immediate, pH 4): clear; Affinity to the fibre (judged from whiteness value) ([2]; whiteness only slightly lower than that of the conventional commercial FWA): high affinity to the fibre; Whiteness [3, 8]: 193
2 | O=S(=O)([O-])c1cc(Nc2nc(Nc3ccc(S(=O)(=O)CCO)cc3)nc(N(CCO)CCO)n2)ccc1/C=C/c1ccc(Nc2nc(Nc3ccc(S(=O)(=O)CCO)cc3)nc(N(CCO)CCO)n2)cc1S(=O)(=O)[O-].[Na+].[Na+] [(103)] | cloudy | clear | clear | clear | cloudy | clear | clear | clear | cloudy | clear | clear | clear | clear | clear | clear | 224 | 53 | 115 | 160 | 184 | Appearance of solution ([1]; 1 hour, pH 3): cloudy; Appearance of solution ([1]; 2 hours, pH 3): cloudy; Appearance of solution ([1]; 4 hours, pH 3): cloudy; Appearance of solution ([1]; Immediate, pH 3): cloudy; Whiteness [3, 8]: 186
